Experiments:
Assay in all cases: two-electrode voltage clamp, Xenopus oocytes
OR36 = system: T1, OR36; type: cell-based, Cimex lectularius; conditions: co-expressed with ORCO, pH 7.6 Ringer's solution, −80 mV, agonist current
T1 construct: full-length cDNA from adult antennae in pT7Ts; co-expressed with ORCO in Xenopus oocytes; with Odorant receptor coreceptor

OR15 = system: T2, OR15; type: cell-based, Cimex lectularius; conditions: co-expressed with ORCO; pH 7.6 Ringer's solution; −80 mV; agonist current
T2 construct: full-length cDNA from adult antennae in pT7Ts; co-expressed with ORCO in Xenopus oocytes; with Odorant receptor coreceptor

OR42 = system: T3, OR42; type: cell-based, Cimex lectularius; conditions: co-expressed with ORCO; pH 7.6 Ringer's solution; −80 mV; agonist current
T3 construct: full-length cDNA from adult antennae in pT7Ts; co-expressed with ORCO in Xenopus oocytes; with Odorant receptor coreceptor

OR19 = system: T4, OR19; type: cell-based, Cimex lectularius; conditions: co-expressed with ORCO; pH 7.6 Ringer's solution; −80 mV; agonist current
T4 construct: full-length cDNA from adult antennae in pT7Ts; co-expressed with ORCO in Xenopus oocytes; with Odorant receptor coreceptor

OR20 = system: T5, OR20; type: cell-based, Cimex lectularius; conditions: co-expressed with ORCO; pH 7.6 Ringer's solution; −80 mV; agonist current
T5 construct: full-length cDNA from adult antennae in pT7Ts; co-expressed with ORCO in Xenopus oocytes; with Odorant receptor coreceptor

OR5 = system: T6, OR5; type: cell-based, Cimex lectularius; conditions: co-expressed with ORCO; pH 7.6 Ringer's solution; −80 mV; agonist current
T6 construct: full-length cDNA from adult antennae in pT7Ts; co-expressed with ORCO in Xenopus oocytes; called OR1 in the group's previous work; with Odorant receptor coreceptor

OR47 = system: T7, OR47; type: cell-based, Cimex lectularius; conditions: co-expressed with ORCO; pH 7.6 Ringer's solution; −80 mV; agonist current
T7 construct: full-length cDNA from adult antennae in pT7Ts; co-expressed with ORCO in Xenopus oocytes; with Odorant receptor coreceptor

OR37 = target: T8, OR37 (Cimex lectularius, UniProt A0A8I6S1W4); type: cell-based; conditions: co-expressed with ORCO; pH 7.6 Ringer's solution; −80 mV; agonist current
T8 construct: gene 106669445; full-length cDNA from adult antennae in pT7Ts; co-expressed with ORCO in Xenopus oocytes; with Odorant receptor coreceptor

OR46 = system: T9, OR46; type: cell-based, Cimex lectularius; conditions: co-expressed with ORCO; pH 7.6 Ringer's solution; −80 mV; agonist current
T9 construct: full-length cDNA from adult antennae in pT7Ts; co-expressed with ORCO in Xenopus oocytes; with Odorant receptor coreceptor

OR1 = system: T10, OR1; type: cell-based, Cimex lectularius; conditions: co-expressed with ORCO; pH 7.6 Ringer's solution; −80 mV; agonist current
T10 construct: full-length cDNA from adult antennae in pT7Ts; co-expressed with ORCO in Xenopus oocytes; OR numbering of the bed bug genome annotation (47 ORs), not the earlier group naming in which OR5 was called OR1; with Odorant receptor coreceptor

OR21 = system: T11, OR21; type: cell-based, Cimex lectularius; conditions: co-expressed with ORCO; pH 7.6 Ringer's solution; −80 mV; agonist current
T11 construct: full-length cDNA from adult antennae in pT7Ts; co-expressed with ORCO in Xenopus oocytes; with Odorant receptor coreceptor

OR12 = system: T12, OR12; type: cell-based, Cimex lectularius; conditions: co-expressed with ORCO; pH 7.6 Ringer's solution; −80 mV; agonist current
T12 construct: full-length cDNA from adult antennae in pT7Ts; co-expressed with ORCO in Xenopus oocytes; with Odorant receptor coreceptor

T8 sequence (A0A8I6S1W4 1-374): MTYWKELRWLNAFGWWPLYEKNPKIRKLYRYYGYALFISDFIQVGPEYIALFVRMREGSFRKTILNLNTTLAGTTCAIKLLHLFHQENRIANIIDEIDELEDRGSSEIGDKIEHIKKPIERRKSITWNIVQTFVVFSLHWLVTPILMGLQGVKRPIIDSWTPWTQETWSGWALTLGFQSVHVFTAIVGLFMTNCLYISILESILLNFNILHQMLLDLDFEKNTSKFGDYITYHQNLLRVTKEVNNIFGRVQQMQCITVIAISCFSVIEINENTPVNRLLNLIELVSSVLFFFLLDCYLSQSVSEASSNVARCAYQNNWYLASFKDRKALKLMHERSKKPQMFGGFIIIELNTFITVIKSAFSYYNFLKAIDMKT
T8 sequence (A0A0A0U7J0 1-451 partner): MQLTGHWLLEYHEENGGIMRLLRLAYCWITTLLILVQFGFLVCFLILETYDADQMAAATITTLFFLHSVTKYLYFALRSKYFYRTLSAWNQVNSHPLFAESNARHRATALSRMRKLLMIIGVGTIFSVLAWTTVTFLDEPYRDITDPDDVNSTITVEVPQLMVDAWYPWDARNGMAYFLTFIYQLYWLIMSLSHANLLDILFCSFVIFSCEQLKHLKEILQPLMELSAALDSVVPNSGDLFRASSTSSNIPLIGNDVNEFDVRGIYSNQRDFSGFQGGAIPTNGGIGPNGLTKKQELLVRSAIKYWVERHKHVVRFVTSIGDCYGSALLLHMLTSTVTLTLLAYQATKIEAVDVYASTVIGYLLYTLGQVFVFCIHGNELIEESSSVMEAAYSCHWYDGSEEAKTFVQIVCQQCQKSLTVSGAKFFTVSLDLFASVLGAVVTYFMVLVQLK

CC(C)[C@@H]1CC[C@@H](C)CC1=O [(−)-menthone]
EC50 (OR36): 1.64 × 10^−7 v/v dilution

C=C1CC/C=C(\C)CC[C@@H]2[C@@H]1CC2(C)C [β-caryophyllene]
EC50 (OR15): 6.46 × 10^−6 v/v dilution

CC1=CC[C@@H]2C[C@H]1C2(C)C [(+)-α-pinene]
EC50 (OR42): 1.32 × 10^−5 v/v dilution

CCCCC(C)=O [2-hexanone]
EC50 (OR19): 1.33 × 10^−6 v/v dilution

C=CC(O)CCCCC (centres unmarked) [1-octen-3-ol]
EC50 (OR20): 6.95 × 10^−6 v/v dilution

CCCCCCCCC=O [nonanal]
EC50 (OR5): 1.32 × 10^−7 v/v dilution

O=c1ccc2ccccc2o1 [coumarin]
EC50 (OR47): 2 × 10^−5 v/v dilution
EC50 (OR42): 1.45 × 10^−5 v/v dilution

CC(C)[C@H]1CC[C@H](C)CC1=O [(+)-menthone]
EC50 (OR37): 1.93 × 10^−7 v/v dilution
EC50 (OR36; b26 prints 9.67 × 10^−8 for the same pair): 9.92 × 10^−8 v/v dilution
EC50 (OR46): 3.46 × 10^−5 v/v dilution

CC12CCC(CC1=O)C2(C)C (centres unmarked) [camphor]
EC50 (OR1): 1.94 × 10^−5 v/v dilution

CCCCCCCCC(C)O (centres unmarked) [2-decanol]
EC50 (OR21): 7.55 × 10^−6 v/v dilution

CC12CCC(CC1)C(C)(C)O2 [eucalyptol]
EC50 (OR1): 1.88 × 10^−5 v/v dilution

CC(C)=CCCC(C)=CC=O [citral]
EC50 (OR37): 3.32 × 10^−8 v/v dilution

CCCCC/C=C/CO [trans-2-octen-1-ol]
EC50 (OR12): 1.03 × 10^−4 v/v dilution

CC1=CC[C@@H]2[C@H](C1)C2(C)C [1s-(+)-3-carene]
EC50 (OR20): 6.85 × 10^−6 v/v dilution

CCCC(C)=O [2-pentanone]
EC50 (OR19): 4.13 × 10^−6 v/v dilution

CCCCCCCCCC=O [decanal]
EC50 (OR5): 1.53 × 10^−6 v/v dilution
EC50 (OR21): 4.27 × 10^−6 v/v dilution

From paper PMC5382537, “Molecular Basis of Olfactory Chemoreception in the Common Bed Bug, Cimex lectularius” (Scientific Reports, 2017)
